The text below walks through data of patent publication US5356928A, “Cytotoxic agents” (Hauser Chemical Research, Inc., priority 1993, dated 1994).

Values after ≈ are worked out from the molar mass of the structure shown. “Also recorded” adds a separate entry of the source. Read-outs that look alike come from different tables or passages of the source. A value given as a limit tells only on which side of the number the result lay.

Data set [1] has as its system Tubulin free of microtubule-associated proteins. Put plainly: Tubulin Assembly (microtubule assembly; protein concentration of the supernatant). Type of data set: biochemical, bovine. Particulars: for Tubulin Assembly ED50: concentration which reduces the supernatant protein concentration by 50%, tubulin 1 mg/ml, 37° C., 15 minutes, PEM buffer pH 6.9; for Tubulin Assembly ED50 /ED50 Taxol: relative to control sample of taxol, less than 1 = greater activity than taxol. An excerpt: This example illustrates the results of biological tests on the compounds of this invention and certain "controls" with respect to tubulin binding and the effect of these compounds on B16 melanoma. The following procedures were employed:
Tubulin Preparation and Assembly. The tubulin testing was done exactly as described by Himes (Georg, G. I., et al., "Synthesis of Biologically Active Taxol Analogs with Modified Phenylisoserine Side Chains", J. Med. Chem. Vol. 35: 4230, (1992)), incorporated herein by reference. Tubulin free of microtubule-associated proteins was purified from bovine brain as described in Algaier, J.; Himes, R. H., "The Effect of Dimethyl Sulfoxide on the Kinetics of Tubulin Assembly" Biochim. Biophys. Acta, Vol 954, pp 235-243, 1988. The assembly reaction was done at 37° C. in PEM buffer ([…], pH 6.9, 1 mM EGTA, and 1 mM MgSO4) at a protein concentration of 1 mg/ml (10 μM) in the presence of taxol or taxol analogs and 0.5 mM GTP. The reaction was monitored by the increase in the apparent absorbance at 350 nm.
Taxol has been included in Table 1 for reference. […] A number less than 1 in these columns indicates greater activity than taxol. A number greater than 1 in these columns indicates lower activity than taxol. These tests have been used and relied upon by researchers in this field to determine the potential efficacy of taxol and/or a taxol analog for the treatment of cancer.
^b Tubulin at 1 mg/ml was incubated with various concentrations of th
compounds at 37° C. for 15 minutes in 0.5 ml of PEM buffer (0.1M
Pipes, 1 mM EGTA, 1 mM MgSO4, pH 6.9). Samples were centrifuged and
the protein concentration on the supernatant was determined.
^d The concentration in μg/ml which reduces the supernatant protei

For data set [2], the system named is B16 melanoma cells. The experiment in a line: B16 Melanoma Cell Proliferation. Format: cell-based. Conditions: for IC50: Mus musculus, read-out: B16 Proliferation ED50; for B16 Proliferation ED50 /ED50 Taxol: relative to control sample of taxol, less than 1 = greater activity than taxol. Here is the method:
The following procedures were employed:
B16 Melanoma Cell Proliferation. Cells were seeded in 24-well plates at 7.5×10^4 cells/well and grown in Delbecco's modified minimal essential medium (MEM) containing 10% bovine calf serum at 37° C. for 24 hours in a 97% humidified atmosphere of 5.5% CO2, the medium was then replaced with fresh medium containing taxol or its derivatives and dissolved in DMSO in concentrations ranging from […] to 1×10^-7 M for taxol and other derivatives. The final concentration of DMSO in the cell medium was 0.5% or less. […] After 40 hours, the cells were released by trypsinization and counted in a Coulter counter.
A number less than 1 in these columns indicates greater activity than taxol. A number greater than 1 in these columns indicates lower activity than taxol.

Data set [3] deals with tubulin. Conditions: Taxotere compared with taxol; taxol per Schiff et al.; Kingston review; cited from earlier work.
Data set [4] deals with cell. Particulars: literature on taxol and taxol analogs (Kingston); cited from earlier work.
Data set [5] concerns P388 murine leukemia cells. Particulars: Taxotere vs taxol; cited from earlier work.
Data set [6] concerns taxol-resistant tumor cells. Conditions: Taxotere vs taxol; cited from earlier work.
Data set [7] relates to macrophage-like J774.2 cells. Particulars: mouse macrophage-like J774.2 cells; Taxotere vs taxol; cited from earlier work.
The conditions of data set [8]: cited from earlier work.
Where [9] appears, read: B16, concentration which reduces the number of cells by 50 [%] compared to a control, about 40 h at 37° C., highest concentration used 1000 ng/ml.

Turning to `CC(=O)O[C@@]12CO[C@@H]1C[C@H](O[C@@H]1OC[C@@H](O)[C@H](O)[C@H]1O)[C@@]1(C)C(=O)[C@H](O)C3=C(C)[C@@H](OC(=O)[C@H](O)[C@@H](NC(=O)c4ccccc4)c4ccccc4)C[C@@](O)([C@@H](OC(=O)c4ccccc4)[C@H]21)C3(C)C` [Compound 5, 10-deacetyl-7-xylosyl taxol], in data set [1], the “Tubulin Assembly ED50” value stood at 0.72 mg/L and the “Tubulin Assembly ED50 /ED50 Taxol” value is given as 0.70. Moreover, the IC50 in data set [2] (B16, 40 h) is > 1 mg/L. Further, in data set [2], the “B16 Proliferation ED50 /ED50 Taxol” value is recorded as > 44.
For `CC(=O)O[C@H]1C(=O)[C@@]2(C)[C@H]([C@H](OC(=O)c3ccccc3)[C@]3(O)C[C@H](OC(=O)[C@H](O)[C@@H](NC(=O)c4ccccc4)c4ccccc4)C(C)=C1C3(C)C)[C@]1(OC(C)=O)CO[C@@H]1C[C@@H]2O` [Compound 1, taxol], the “activity as a promoter of tubulin polymerization / tubulin binding, in words” value in data set [3] is “significant tubulin binding activity”. Moreover, in data set [4], the “cytotoxicity / activity, in words” value is recorded as “significant cytotoxicity”. In data set [1], the “Tubulin Assembly ED50” value came out at 1.08 mg/L and the “Tubulin Assembly ED50 /ED50 Taxol” value amounted to 1.26. For the same molecule, the “ED50 for taxol in the assembly assay” value in data set [1] (control sample, denominator of ED50/ED50 Taxol, 15 min) was 0.854 mg/L. Moreover, the “B16 Proliferation ED50 /ED50 Taxol” value in data set [2] is on record as 0.95.
Take `CC(=O)O[C@H]1C(=O)[C@]2(C)[C@@H](O[C@@H]3OCC(O)OC3O)C[C@H]3OC[C@@]3(OC(C)=O)[C@H]2[C@H](OC(=O)c2ccccc2)[C@]2(O)C[C@H](OC(=O)[C@H](O)[C@@H](NC(=O)c3ccccc3)c3ccccc3)C(C)=C1C2(C)C` (stereo partly shown) [Compound 4]: in data set [1] (compared to taxol or to precursors), the “tubulin binding / in vitro tubulin assembly, in words” value is recorded as “comparable to results for taxol”. Besides, in data set [1], the “Tubulin Assembly ED50” value was 0.48 mg/L and the “Tubulin Assembly ED50 /ED50 Taxol” value came to 0.57. Besides, the “cytotoxicity, in words” value in data set [2] (B16 melanoma, compared to taxol or to precursors) is “comparable to results for taxol”. In data set [2] (setting [9]), the IC50 is 0.05 mg/L (≈ 0.0514 µM). For the same molecule, the “B16 Proliferation ED50 /ED50 Taxol” value in data set [2] is 2.2.
For the molecule `CC(=O)O[C@H]1C(=O)[C@]2(C)[C@@H](O[C@@H]3OC[C@@H](O)[C@H](O)[C@H]3O)C[C@H]3OC[C@@]3(OC(C)=O)[C@H]2[C@H](OC(=O)c2ccccc2)[C@]2(O)C[C@H](OC(=O)[C@H](O)[C@@H](NC(=O)c3ccccc3)c3ccccc3)C(C)=C1C2(C)C` [Compound 3, 7-xylosyl taxol], in data set [1], the “Tubulin Assembly ED50” value was determined as 0.82 mg/L and the “Tubulin Assembly ED50 /ED50 Taxol” value is given as 0.80. In data set [2] (B16, 40 h), the IC50 is 0.925 mg/L (≈ 0.938 µM). In addition, the “B16 Proliferation ED50 /ED50 Taxol” value in data set [2] was determined as 40.8.
`C/C=C(\C)C(=O)N[C@@H](c1ccccc1)[C@@H](O)C(=O)O[C@H]1C[C@@]2(O)[C@@H](OC(=O)c3ccccc3)[C@@H]3[C@]4(OC(C)=O)CO[C@@H]4C[C@H](O[C@@H]4OC[C@@H](O)[C@H](O)[C@H]4O)[C@@]3(C)C(=O)[C@H](O)C(=C1C)C2(C)C` [Compound 9, 10-deacetyl-7-xylosyl cephalomannine]: in data set [1], the “Tubulin Assembly ED50” value was found to be 1.10 mg/L and the “Tubulin Assembly ED50 /ED50 Taxol” value is 1.10. Besides, the IC50 in data set [2] (B16, 40 h) is 0.755 mg/L (≈ 0.819 µM). Besides, the “B16 Proliferation ED50 /ED50 Taxol” value in data set [2] is 33.3.
For the molecule `CCCCCC(=O)N[C@@H](c1ccccc1)[C@@H](O)C(=O)O[C@H]1C[C@@]2(O)[C@@H](OC(=O)c3ccccc3)[C@@H]3[C@]4(OC(C)=O)CO[C@@H]4C[C@H](O[C@@H]4OCC(O)OC4O)[C@@]3(C)C(=O)[C@H](O)C(=C1C)C2(C)C` (stereo partly shown) [Compound 14], in data set [1], the “Tubulin Assembly ED50” value is 1.45 mg/L and the “Tubulin Assembly ED50 /ED50 Taxol” value is given as 1.70. In addition, the IC50 in data set [2] (setting [9]) is 0.186 mg/L (≈ 0.201 µM). Moreover, the “B16 Proliferation ED50 /ED50 Taxol” value in data set [2] amounted to 8.28.
Regarding `CC(=O)O[C@@]12CO[C@@H]1C[C@H](O[C@@H]1OCC(O)OC1O)[C@@]1(C)C(=O)[C@H](O)C3=C(C)[C@@H](OC(=O)[C@H](O)[C@@H](NC(=O)c4ccccc4)c4ccccc4)C[C@@](O)([C@@H](OC(=O)c4ccccc4)[C@H]21)C3(C)C` (stereo partly shown) [Compound 6], in data set [1], the “Tubulin Assembly ED50” value amounted to 0.68 mg/L and the “Tubulin Assembly ED50 /ED50 Taxol” value was 0.80. In addition, the IC50 in data set [2] (B16, 40 h) turned out to be 0.432 mg/L (≈ 0.465 µM). In addition, the “B16 Proliferation ED50 /ED50 Taxol” value in data set [2] was 15.1.
On to `C/C=C(\C)C(=O)N[C@@H](c1ccccc1)[C@@H](O)C(=O)O[C@H]1C[C@@]2(O)[C@@H](OC(=O)c3ccccc3)[C@@H]3[C@]4(OC(C)=O)CO[C@@H]4C[C@H](O[C@@H]4OCC(O)OC4O)[C@@]3(C)C(=O)[C@H](O)C(=C1C)C2(C)C` (stereo partly shown) [Compound 10], for which, in data set [1], the “Tubulin Assembly ED50” value is 0.82 mg/L and the “Tubulin Assembly ED50 /ED50 Taxol” value came out at 0.96. Besides, the IC50 in data set [2] (B16, 40 h) came to 0.317 mg/L (≈ 0.349 µM). For the same molecule, the “B16 Proliferation ED50 /ED50 Taxol” value in data set [2] was found to be 14.1.
Turning to `CC(=O)O[C@@]12CO[C@@H]1C[C@H](O)[C@@]1(C)C(=O)[C@H](O)C3=C(C)[C@@H](OC(=O)[C@H](O)[C@@H](NC(=O)OC(C)(C)C)c4ccccc4)C[C@@](O)([C@@H](OC(=O)c4ccccc4)[C@H]21)C3(C)C` [Compound 2], the “potency as an inhibitor of replication, times more potent than taxol” value in data set [5] and in data set [7] was 1.5 times throughout. Moreover, the “potency in taxol-resistant tumor cells, vs taxol” value in data set [6] is given as “at least five-fold more potent”. Moreover, in data set [3], the “activity as a promoter of tubulin polymerization / tubulin binding, in words” value is “slightly more active as a promoter of tubulin polymerization; also recorded: enhanced in vitro tubulin binding activity”. Moreover, in data set [8], the “water solubility, in words” value was “improved water solubility”.
For `CCCCCC(=O)N[C@@H](c1ccccc1)[C@@H](O)C(=O)O[C@H]1C[C@@]2(O)[C@@H](OC(=O)c3ccccc3)[C@@H]3[C@]4(OC(C)=O)CO[C@@H]4C[C@H](O[C@@H]4OC[C@@H](O)[C@H](O)[C@H]4O)[C@@]3(C)C(=O)[C@H](O)C(=C1C)C2(C)C` [Compound 13, 10-deacetyl-7-xylosyl taxol C], in data set [1], the “Tubulin Assembly ED50” value was determined as 0.58 mg/L and the “Tubulin Assembly ED50 /ED50 Taxol” value came to 0.60. In data set [2] (B16, 40 h), the IC50 is > 1 mg/L. The “B16 Proliferation ED50 /ED50 Taxol” value in data set [2] is listed as > 44.
As to `CC(=O)O[C@@]12CO[C@@H]1C[C@H](O[C@@H](CO)OCCO)[C@@]1(C)C(=O)[C@H](O)C3=C(C)[C@@H](OC(=O)[C@H](O)[C@@H](NC(=O)c4ccccc4)c4ccccc4)C[C@@](O)([C@@H](OC(=O)c4ccccc4)[C@H]21)C3(C)C` [Compound 15], in data set [1], the “Tubulin Assembly ED50” value is 1.42 mg/L and the “Tubulin Assembly ED50 /ED50 Taxol” value is on record as 1.66. Also, the IC50 in data set [2] (setting [9]) turned out to be 0.328 mg/L (≈ 0.358 µM). Also, in data set [2], the “B16 Proliferation ED50 /ED50 Taxol” value stood at 14.6.
